The values below are quoted from earlier work in US20140230256A1, “HAND HELD DEVICE” (The Gillette Company, priority 2013, published 2014).

For the data set the following is noted: organism not stated.

On to `CCCCCCCCn1sc(Cl)c(Cl)c1=O` [4,5-dichloro-2-n-octyl-4-isothiazolin-3-one], for which the MIC result was “about 50 ppm”.
